Reference: patent US9353104B2, “Substituted pyridizinone derivatives as PDE10 inhibitors” (priority 2013, dated 2016)
pKi: −log10 of the molar value.

These compounds were tested against human PDE10A2 (Homo sapiens (Human), UniProt Q9Y233) (assay: PDE10 fluorescence polarization (IMAP FP) inhibition assay). Settings: human PDE10A2 lysate, FAM-labeled cAMP 50 nM, room temperature; read-out: PDE10A Ki.
Format: biochemical
How it was run: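 Cytoplasmic lysate of AD293 cells transiently expressing human PDE10A2, diluted for ~20% conversion of 50 nM FAM-cAMP, in 10 mM Tris pH 7.2, 10 mM MgCl2, 1 mM DTT, 0.01% Tween-20. Reaction 30 min at room temperature, read by IMAP fluorescence polarization; 10-point 3-fold titrations, 1% DMSO as 0%, reference PDE10 inhibitor at 5,000× Ki as 100%.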

human PDE10A2, sequence (Q9Y233 267-1055): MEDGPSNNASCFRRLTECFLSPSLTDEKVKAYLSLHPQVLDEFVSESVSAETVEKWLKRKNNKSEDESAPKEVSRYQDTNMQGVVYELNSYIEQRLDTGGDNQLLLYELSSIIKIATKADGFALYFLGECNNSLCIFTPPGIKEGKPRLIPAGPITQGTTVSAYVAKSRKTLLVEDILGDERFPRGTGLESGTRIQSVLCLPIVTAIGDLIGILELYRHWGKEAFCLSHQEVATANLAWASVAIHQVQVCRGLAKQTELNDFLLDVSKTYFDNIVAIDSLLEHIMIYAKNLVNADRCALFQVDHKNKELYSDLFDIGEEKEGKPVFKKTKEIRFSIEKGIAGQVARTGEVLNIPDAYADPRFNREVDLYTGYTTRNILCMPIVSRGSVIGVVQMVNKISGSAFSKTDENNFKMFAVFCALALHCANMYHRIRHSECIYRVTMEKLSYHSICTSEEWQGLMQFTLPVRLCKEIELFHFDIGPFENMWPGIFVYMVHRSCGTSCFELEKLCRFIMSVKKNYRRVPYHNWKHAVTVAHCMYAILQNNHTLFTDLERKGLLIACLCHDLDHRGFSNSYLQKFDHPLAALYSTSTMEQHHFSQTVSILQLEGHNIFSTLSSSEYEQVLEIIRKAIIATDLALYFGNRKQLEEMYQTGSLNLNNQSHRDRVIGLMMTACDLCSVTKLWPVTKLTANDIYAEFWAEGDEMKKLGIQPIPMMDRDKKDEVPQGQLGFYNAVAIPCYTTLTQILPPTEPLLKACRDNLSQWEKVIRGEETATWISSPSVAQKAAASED

Point of comparison: CCc1cc(CNc2cc(OC[C@H]3C[C@@H]3c3ccc(OC)cn3)nn(C)c2=O)n(C)n1 [Example 137, 4-((3-ethyl-1-methyl-1H-pyrazol-5-yl)methylamino)-6-(((1S,2S)-2-(5-methoxypyridin-2-yl)cyclopropyl)methoxy)-2-methylpyridazin-3(2H)-one], pKi 10.24. Against it:
- Cc1ncc(CNc2cc(OC[C@@H]3C[C@H]3c3nn(C)c4ccccc34)nn(C)c2=O)s1 [Example 110, 2-methyl-6-(((1R,2R)-2-(1-methyl-1H-indazol-3-yl)cyclopropyl)methoxy)-4-((2-methylthiazol-5-yl)methylamino)pyridazin-3(2H)-one] — within 0.2 log units, 10.11
- Cn1cc(CNc2cc(OC[C@H]3C[C@@H]3c3nn(C)c4ccccc34)nn(C)c2=O)cn1 [Example 111, 2-methyl-6-(((1S,2S)-2-(1-methyl-1H-indazol-3-yl)cyclopropyl)methoxy)-4-((1-methyl-1H-pyrazol-4-yl)methylamino)-pyridazin-3(2H)-one] — 1.52 log units lower, 8.72
- Cc1cnc(CNc2cc(OC[C@H]3C[C@@H]3c3nn(C)c4ccccc34)nn(C)c2=O)s1 [Example 112, 2-methyl-6-(((1S,2S)-2-(1-methyl-1H-indazol-3-yl)cyclopropyl)methoxy)-4-((5-methylthiazol-2-yl)methylamino)pyridazin-3(2H)-one] — 1.39 log units lower, 8.85
- Cn1cc(CNc2cc(OC[C@@H]3C[C@H]3c3nn(C)c4ccccc34)nn(C)c2=O)cn1 [Example 113, 2-methyl-6-(((1R,2R)-2-(1-methyl-1H-indazol-3-yl)cyclopropyl)methoxy)-4-((1-methyl-1H-pyrazol-4-yl)methylamino) pyridazin-3(2H)-one] — 0.53 log units lower, 9.71
- Cc1cnc(CNc2cc(OC[C@@H]3C[C@H]3c3nn(C)c4ccccc34)nn(C)c2=O)s1 [Example 114, 2-methyl-6-(((1R,2R)-2-(1-methyl-1H-indazol-3-yl)cyclopropyl)methoxy)-4-((5-methylthiazol-2-yl)methylamino)pyridazin-3(2H)-one] — 0.31 log units lower, 9.93
- Cc1cccc([C@H]2C[C@@H]2COc2cc(NCc3nnc(C)s3)c(=O)n(C)n2)n1 [Example 115, 2-methyl-4-((5-methyl-1,3,4-thiadiazol-2-yl)methylamino)-6-(((1S,2S)-2-(6-methylpyridin-2-yl)cyclopropyl)methoxy) pyridazin-3(2H)-one] — 0.24 log units higher, 10.48
- Cc1cccc([C@H]2C[C@@H]2COc2cc(NCc3cc(C)nn3C)c(=O)n(C)n2)n1 [Example 116, 4-((1,3-dimethyl-1H-pyrazol-5-yl)methylamino)-2-methyl-6-(((1S,2S)-2-(6-methylpyridin-2-yl)cyclopropyl)methoxy) pyridazin-3(2H)-one] — 1.06 log units higher, 11.30
- Cc1cccc([C@H]2C[C@@H]2COc2cc(NCc3cnn(C)c3)c(=O)n(C)n2)n1 [Example 117, 2-methyl-4-((1-methyl-1H-pyrazol-4-yl)methyl-amino)-6-(((1S,2S)-2-(6-methylpyridin-2-yl)cyclopropyl)methoxy) pyridazin-3(2H)-one] — within 0.2 log units, 10.05
- Cc1cccc([C@H]2C[C@@H]2COc2cc(NCc3ncc(C)s3)c(=O)n(C)n2)n1 [Example 118, 2-methyl-6-(((1S,2S)-2-(6-methylpyridin-2-yl)cyclo-propyl)methoxy)-4-((5-methylthiazol-2-yl)methyl-amino)pyridazin-3(2H)one] — within 0.2 log units, 10.43
- Cc1cccc([C@H]2C[C@@H]2COc2cc(NCc3ccccn3)c(=O)n(C)n2)n1 [Example 119, 2-methyl-6-(((1S,2S)-2-(6-methylpyridin-2-yl)cyclo-propyl)methoxy)-4-(pyridin-2-ylmethylamino-)pyridazin-3(2H)-one] — 1.77 log units lower, 8.47
- Cc1cccc([C@H]2C[C@@H]2COc2cc(NCc3cccnc3)c(=O)n(C)n2)n1 [Example 120, 2-methyl-6-(((1S,2S)-2-(6-methylpyridin-2-yl)cyclo-propyl)methoxy)-4-(pyridin-3-ylmethylamino-)pyridazin-3(2H)-one] — 1.35 log units lower, 8.89
- Cc1cc(CNc2cc(OC[C@H]3C[C@@H]3c3ccc4c(n3)CCC4)nn(C)c2=O)n(C)n1 [Example 121, 6-(((1S,2S)-2-(6,7-dihydro-5H-cyclopenta-[b]pyridin-2-yl)cyclop-ropyl)methoxy)-4-((1,3-dimethyl-1H-pyrazol-5-yl)methylamino)-2-methylpyridazin-3(2H)one] — 1.76 log units higher, 12.00
- Cc1cnc(CNc2cc(OC[C@H]3C[C@@H]3c3ccc4c(n3)CCC4)nn(C)c2=O)s1 [Example 124, 6-(((1S,2S)-2-(6,7-dihydro-5H-cyclopenta-[b]pyridin-2-yl)cyclopropyl)methoxy)-2-methy-4-((5-methylthiazol-2-yl)-methylamino-)pyridazin-3(2H)-one] — 1.46 log units higher, 11.70
- Cn1cc(CNc2cc(OC[C@H]3C[C@@H]3c3ccc4c(n3)CCC4)nn(C)c2=O)cn1 [Example 125, 6-(((1S,2S)-2-(6,7-dihydro-5H-cyclopenta[b]pyridin-2-1)cyclopropyl)methoxy)-2-methyl-4-((1-methyl-1H-pyrazol-4-yl)methylamino-)pyridazin-3(2H)-one] — 1.06 log units higher, 11.30
- COc1ccc([C@H]2C[C@@H]2COc2cc(NCc3nc(C)c(C)s3)c(=O)n(C)n2)nc1 [Example 126, 4-((4,5-dimethylthiazol-2-yl)methylamino)-6-(((1S,2S)-2-(5-methoxy-pyridin-2-yl)cyclopropyl-)methoxy)-2-methyl-pyridazin-3(2H)-one] — within 0.2 log units, 10.32
- Cc1ccc([C@H]2C[C@@H]2COc2cc(NCc3nc(C)c(C)s3)c(=O)n(C)n2)nc1 [Example 127, 4-((4,5-dimethylthiazol-2-yl)methylamino)-2-methyl-6-(((1S,2S)-2-(5-methyl-pyridin-2-yl)cyclopropyl- )methoxy)pyridazin-3(2H)-one] — within 0.2 log units, 10.35
- Cc1nc(CNc2cc(OC[C@H]3C[C@@H]3c3ccn(C)n3)nn(C)c2=O)sc1C [Example 128, 4-((4,5-dimethylthiazol-2-yl)methylamino)-2-methyl-6-(((1S,2S)-2-(1-methyl-1H-pyrazol-3-yl)cyclo-propyl)methoxy)pyridazin-3(2H)-one] — 0.81 log units lower, 9.43
- Cc1cc(CNc2cc(OC[C@H]3C[C@@H]3c3ccn(C)n3)nn(C)c2=O)nn1C [Example 129, 4-((1,5-dimethyl-1H-pyrazol-3-yl)methylamino)-2-methyl-6-(((1S,2S)-2-(1-methyl-1H-pyrazol-3-yl)cyclopropyl)methoxy) pyridazin-3(2H)-one] — 1.80 log units lower, 8.44
- COc1ccc([C@H]2C[C@@H]2COc2cc(NCc3ncc(C)s3)c(=O)n(C)n2)nc1 [Example 130, 6-(((1S,2S)-2-(5-methoxy-pyridin-2-yl)cyclopropyl-)methoxy)-2-methyl-4-((5-methyl-thiazol-2-yl)-methylamino-)pyridazin-3(2H)-one] — 1.16 log units higher, 11.40
- COc1ccc([C@H]2C[C@@H]2COc2cc(NCc3cnn(C)c3)c(=O)n(C)n2)nc1 [Example 131, 6-(((1S,2S)-2-(5-methoxy-pyridin-2-yl)cyclopropyl-)methoxy)-2-methyl-4-((1-methyl-1H-pyrazol-4-yl)methylamino)pyridazin-3(2H)-one] — 0.61 log units higher, 10.85
- COc1ccc([C@H]2C[C@@H]2COc2cc(NCc3cc(C)nn3C)c(=O)n(C)n2)nc1 [Example 132, 4-((1,3-dimethyl-1H-pyrazol-5-yl)methyl-amino)-6-(((1S,2S)-2-(5-methoxypyridin-2-yl)-cyclopropyl)methoxy)-2-methylpyridazin-3(2H)one] — 1.46 log units higher, 11.70
- COc1ccc(CNc2cc(OC[C@H]3C[C@@H]3c3ccc(OC)cn3)nn(C)c2=O)cc1 [Example 133, 4-(4-methoxybenzyl-amino)-6-(((1S,2S)-2-(5-methoxypyridin-2-yl)-cyclopropyl)methoxy)-2-methylpyridazin-3(2H)one] — 0.44 log units higher, 10.68
- COc1ccc([C@H]2C[C@@H]2COc2cc(NCc3ccccn3)c(=O)n(C)n2)nc1 [Example 134, 6-(((1S,2S)-2-(5-methoxy-pyridin-2-yl)-cyclopropyl-)methoxy)-2-methyl-4-(pyridin-2-yl-methyl-amino)pyridazin-3(2H)one] — 1.09 log units lower, 9.15
- COc1ccc([C@H]2C[C@@H]2COc2cc(NCc3cccnc3)c(=O)n(C)n2)nc1 [Example 135, 6-(((1S,2S)-2-(5-methoxy-pyridin-2-yl)cyclopropyl-)methoxy)-2-methyl-4-(pyridin-3-ylmethylamino-)pyridazin-3(2H)-one] — 0.66 log units lower, 9.58
- COc1ccc([C@H]2C[C@@H]2COc2cc(NCCc3nccs3)c(=O)n(C)n2)nc1 [Example 136, 6-(((1S,2S)-2-(5-methoxy-pyridin-2-yl)cyclopropyl-)methoxy)-2-methyl-4-(2-(thiazol-2-yl)ethylamino-)pyridazin-3(2H)-one] — 2.25 log units lower, 7.99
- CCc1cc(CNc2cc(OC[C@H]3C[C@@H]3c3ccc(C)cn3)nn(C)c2=O)n(C)n1 [Example 138, 4-((3-ethyl-1-methyl-1H-pyrazol-5-yl)methylamino)-2-methyl-6-(((1S,2S)-2-(5-methylpyridin-2-yl)cyclopropyl)methoxy) pyridazin-3(2H)-one] — 0.33 log units higher, 10.57
- CCc1cc(CNc2cc(OC[C@H]3C[C@@H]3c3ccn(C)n3)nn(C)c2=O)n(C)n1 [Example 139, 4-((3-ethyl-1-methyl-1H-pyrazol-5-yl)methylamino)-2-methyl-6-(((1S,2S)-2-(1-methyl-1H-pyrazol-3-yl)cyclopropyl)methoxy) pyridazin-3(2H)-one] — 0.71 log units lower, 9.53
- COc1ccc([C@H]2C[C@@H]2COc2nn(C)c(=O)c(NCc3nnc(C)s3)c2Br)nc1 [Example 140, 5-bromo-6-(((1S,2S)-2-(5-methoxypyridin-2-yl)cyclopropyl)methoxy)-2-methyl-4-((5-methyl-1,3,4-thiadiazol-2-yl)methyl-amino)pyridazin-3(2H)-one] — 1.16 log units higher, 11.40
- COc1ccc([C@H]2C[C@@H]2COc2nn(C)c(=O)c(NCc3nnc(C)s3)c2Cl)nc1 [Example 141, 5-chloro-6-(((1S,2S)-2-(5-methoxypyridin-2-yl)cyclopropyl)methoxy)-2-methyl-4-((5-methyl-1,3,4-thiadiazol-2-yl)methylamino)pyridazin-3(2H)-one] — 1.16 log units higher, 11.40
